{"source": "paper PMC10649572", "about": "(International Journal of Molecular Sciences, 2023)", "origin": "cited, not measured here", "biological_target": "T1, CaM^WT (Homo sapiens, UniProt P0DP23)", "T1 construct": "made in house; host or cells: Escherichia coli BL21-CodonPlus(DE3)", "conditions": "in the presence and absence of Ca^2+; ref [38]", "note": "No end group written: not given here."}
{"sequence": "LMRMLSLKSLKKQMKKV [Peptide F]", "values": [{"measurement": "interaction with CaM", "value": "significant affinity"}]}
